The subject of test [1] is HEP-3B. Nature of the test: 5-day cell proliferation assay (CTG). The test is classed as cell-based. As to conditions: Homo sapiens, Hep3B, 120 h, Liver. In short, it runs like this: (§1)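 Cells seeded overnight in 384-well plates, then exposed to test compounds in triplicate for five days at 37 °C. Viable cell amount measured by CellTiter-Glo luminescence, with a day 0 plate as baseline. GI50 fitted by sigmoidal nonlinear regression on percent of untreated control.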

In test [2] the test system is SW480. Nature of the test: 5-day cell proliferation assay (CTG). The test is classed as cell-based. The conditions noted are these: Homo sapiens, 120 h, SW480, Colorectal. In short, it runs like this:
as §1

One compound from patent US20250115571A1, “OXOPIPERAZINE DERIVATIVES” (Inthera Bioscience AG, priority 2017, published 2025) can be followed below.

SMILES strings stand for the structures.

Broadly, the GI50 is the concentration that inhibits growth by half. Turning to `CC(C)C[C@@H]1NCCN([C@@H](CC(C)C)C(=O)N2CCC3(C[C@@H]2C)OCC(CN2CCCC2)CO3)C1=O` (stereo partly drawn) [Compound 258, (3S)-1-[(2S)-4-methyl-1-oxo-1-[(3s,6s,8S)-8-methyl-3-(pyrrolidin-1-ylmethyl)-1,5-dioxa-9-azaspiro[5.5]undec-an-9-yl]pentan-2-yl]-3-(2-methylpropyl)piper-azin-2-one (^≠), isomer Z], the 50% growth inhibitory concentration (GI50) in test [1] amounted to 23 nM; in test [2] it was 22 nM.
